Data taken from ChEMBL document CHEMBL2429812, “Exploring multitarget interactions to reduce opiate withdrawal syndrome and psychiatric comorbidity” (ACS Med Chem Lett, 2013).
The source made the active and inactive calls. The rule behind the calls is not given here.

How the values were obtained:
[1] = Binding affinity to I2 imidazoline binding site in rat brain membrane; type: cell membranes
[2] = target: T1, 5-hydroxytryptamine receptor 1A (Homo sapiens) (UniProt P08908); assay: Agonist activity at human 5HT1A receptor assessed as intrinsic activity
T1 sequence (whole entry): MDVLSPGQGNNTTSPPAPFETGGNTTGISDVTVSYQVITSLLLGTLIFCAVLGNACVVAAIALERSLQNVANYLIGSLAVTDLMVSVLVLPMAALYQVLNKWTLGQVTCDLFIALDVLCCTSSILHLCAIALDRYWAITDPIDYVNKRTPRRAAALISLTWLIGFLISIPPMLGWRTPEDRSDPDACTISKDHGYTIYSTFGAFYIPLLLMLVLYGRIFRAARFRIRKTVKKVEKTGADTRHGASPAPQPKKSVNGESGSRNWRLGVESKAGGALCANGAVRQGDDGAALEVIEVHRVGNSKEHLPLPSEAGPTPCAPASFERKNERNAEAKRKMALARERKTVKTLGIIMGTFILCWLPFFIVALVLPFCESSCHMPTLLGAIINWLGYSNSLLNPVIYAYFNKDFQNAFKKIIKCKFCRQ

[3] = target: T2, Alpha-2A adrenergic receptor (Homo sapiens) (UniProt P08913); assay: Antagonist activity at human alpha2A AR
T2 sequence (whole entry): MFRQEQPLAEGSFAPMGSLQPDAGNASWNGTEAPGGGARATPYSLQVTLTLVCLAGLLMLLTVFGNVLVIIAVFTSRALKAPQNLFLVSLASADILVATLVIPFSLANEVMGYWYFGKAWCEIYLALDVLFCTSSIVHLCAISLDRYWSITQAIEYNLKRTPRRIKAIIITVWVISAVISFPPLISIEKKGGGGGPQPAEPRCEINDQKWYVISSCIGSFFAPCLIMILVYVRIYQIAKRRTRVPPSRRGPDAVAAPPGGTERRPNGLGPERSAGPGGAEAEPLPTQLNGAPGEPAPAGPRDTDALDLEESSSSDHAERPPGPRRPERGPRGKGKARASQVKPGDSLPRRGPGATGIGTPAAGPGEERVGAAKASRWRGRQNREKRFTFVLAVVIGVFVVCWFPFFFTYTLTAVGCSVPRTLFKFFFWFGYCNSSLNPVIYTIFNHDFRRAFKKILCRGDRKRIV

[4] = target: T3, 5-hydroxytryptamine receptor 1A (Homo sapiens, UniProt P08908); assay: Binding affinity at human 5HT1A receptor
T3 sequence (P08908 whole entry): T1 sequence (whole entry)

[5] = target: T4, Alpha-2B adrenergic receptor (Homo sapiens) (UniProt P18089); assay: Agonist activity at human alpha2B AR assessed as intrinsic activity
T4 sequence (whole entry): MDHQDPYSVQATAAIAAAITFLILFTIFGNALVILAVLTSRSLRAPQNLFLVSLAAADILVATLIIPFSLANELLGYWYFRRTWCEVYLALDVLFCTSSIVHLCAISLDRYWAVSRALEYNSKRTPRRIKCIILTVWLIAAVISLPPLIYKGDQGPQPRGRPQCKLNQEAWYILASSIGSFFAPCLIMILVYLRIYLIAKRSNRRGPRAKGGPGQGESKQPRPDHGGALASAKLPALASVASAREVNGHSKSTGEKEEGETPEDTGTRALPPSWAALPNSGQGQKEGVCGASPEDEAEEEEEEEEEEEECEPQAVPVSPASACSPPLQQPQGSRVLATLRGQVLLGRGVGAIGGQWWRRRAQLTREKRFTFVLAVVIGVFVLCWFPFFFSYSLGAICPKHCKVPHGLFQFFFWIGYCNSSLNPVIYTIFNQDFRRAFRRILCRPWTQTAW

Mus musculus [6] = assay: Antidepressant-like activity in mouse assessed as reduction in immobility time at 0.05 mg/kg, ip by forced swimming test; type: functional, organism-based; design: dose 0.05 mg/kg
[7] = target: T5, Alpha-2C adrenergic receptor (Homo sapiens) (UniProt P18825); assay: Agonist activity at human alpha2C AR assessed as intrinsic activity
T5 sequence (whole entry): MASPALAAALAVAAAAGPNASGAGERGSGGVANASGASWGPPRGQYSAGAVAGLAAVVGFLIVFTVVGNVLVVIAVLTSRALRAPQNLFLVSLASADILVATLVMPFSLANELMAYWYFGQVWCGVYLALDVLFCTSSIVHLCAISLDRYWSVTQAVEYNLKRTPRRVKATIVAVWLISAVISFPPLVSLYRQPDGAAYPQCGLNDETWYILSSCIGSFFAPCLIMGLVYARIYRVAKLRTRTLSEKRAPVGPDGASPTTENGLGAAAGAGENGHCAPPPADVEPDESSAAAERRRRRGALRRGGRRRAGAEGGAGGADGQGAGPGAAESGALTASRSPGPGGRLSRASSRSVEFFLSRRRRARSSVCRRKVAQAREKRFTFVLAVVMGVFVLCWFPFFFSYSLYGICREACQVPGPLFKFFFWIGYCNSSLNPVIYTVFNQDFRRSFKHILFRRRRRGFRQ

[8] = target: T1, 5-hydroxytryptamine receptor 1A (Homo sapiens); assay: Agonist activity at human 5HT1A receptor
[9] = target: T4, Alpha-2B adrenergic receptor (Homo sapiens)
[10] = target: T1, 5-hydroxytryptamine receptor 1A (Homo sapiens); assay: Agonist activity at human 5HT1A receptor relative to control
Mus musculus [11] = assay: Antidepressant-like activity in mouse assessed as reduction in immobility time at 0.025 mg/kg, ip by forced swimming test; type: functional, organism-based; design: dose 0.025 mg/kg
[12] = target: T6, Alpha-2C adrenergic receptor (Homo sapiens, UniProt P18825); assay: Binding affinity at human alpha2C AR
T6 sequence (P18825 whole entry): T5 sequence (whole entry)

[13] = target: T7, Alpha-2B adrenergic receptor (Homo sapiens, UniProt P18089); assay: Agonist activity at human alpha2B AR
T7 sequence (P18089 whole entry): T4 sequence (whole entry)

[14] = target: T7, Alpha-2B adrenergic receptor; assay: Binding affinity at human alpha2B AR
[15] = target: T6, Alpha-2C adrenergic receptor; assay: Agonist activity at human alpha2C AR
[16] = target: T8, Alpha-2A adrenergic receptor (Homo sapiens, UniProt P08913); assay: Binding affinity at human alpha2A AR
T8 sequence (P08913 whole entry): T2 sequence (whole entry)

Mus musculus [17] = assay: Antidepressant-like activity in ip dosed mouse assessed as dosed required for reduction in immobility time by forced swimming test; type: functional
Mus musculus [18] = assay: Reduction in morphine dependence expression in ip dosed mouse assessed as dosed required for decrease in expression of naloxone-precipitated withdrawal syndrome; type: functional
Mus musculus [19] = assay: Antidepressant-like activity in mouse assessed as reduction in immobility time at 10 mg/kg, ip by forced swimming test; type: functional, organism-based; design: dose 10 mg/kg
Mus musculus [20] = assay: Antidepressant-like activity in mouse assessed as reduction in immobility time at 20 mg/kg, ip by forced swimming test; type: functional, organism-based; design: dose 20 mg/kg

Compound	pKi [1]	pKb [3]	Ki [4] [nM]	Intrinsic activity [5]	Intrinsic activity [7]	pD2 [8]	Ki [12] [nM]	Ki [14] [nM]	Ki [16] [nM]	other results
c1ccc(C2CC2)c(OCC2=NCCN2)c1 [CIRAZOLINE]	8.35	6.4	34.7							Intrinsic activity [2]: 0.8
CC(Oc1ccccc1CC1CC1)C1=NCCN1 (stereo not drawn) [CYCLOMETHYLINE]	< 6			0.7	0.8					Activity (Mus musculus [6]): Active
C[C@H](Oc1ccccc1CC1CC1)C1=NCCN1				0.7	0.85					
C=CCc1ccccc1O[C@@H](C)C1=NCCN1		7.8		0.65	0.9	7.19				
C=CCc1ccccc1OC(C)C1=NCCN1 (stereo not drawn) [ALLYPHENYLINE]	< 6	7.4			0.9	6.86				Activity (Mus musculus [6]): Active; pEC50 [9]: inactive
CC(Oc1ccccc1C1CC1)C1=NCCN1 (stereo not drawn)	< 6	7	7.24	0.7	0.9	7.24				Activity (Mus musculus [6]): Active; Emax [10]: 92%
C[C@H](Oc1ccccc1C1CC1)C1=NCCN1		7.7	6.03	0.65	0.9	7.86				Activity (Mus musculus [11]): Active; Emax [10]: 102%
CC(Oc1ccccc1Br)C1=NCCN1 (stereo not drawn)	< 6	7.04	148	0.4	0.87					
c1ccc(OCC2=NCCN2)c(CC2CC2)c1	6.9	6.35	83.2				631	501	77.6	Intrinsic activity [2]: 0.8; EC50 [13]: 1700 nM; EC50 [15]: 234 nM
c1ccc2oc(C3=NCCN3)cc2c1	8.89						26900	26900	26900	Activity (Mus musculus [17]): 10 mg/kg; Activity (Mus musculus [18]): 19 mg/kg
C[C@@H](Oc1ccccc1CC1CC1)C1=NCCN1				0.65	0.75					
CCCc1ccccc1OCC1=NCCN1	8.25	6.28	79.4				490	550	49	Intrinsic activity [2]: 0.9; EC50 [13]: 2510 nM; EC50 [15]: 155 nM; Activity (Mus musculus [19]): Active
c1ccc(OC2CC2)c(OCC2=NCCN2)c1	< 6	6.22	79.4				794	794	316	Intrinsic activity [2]: 1; EC50 [13]: 3160 nM; EC50 [15]: 1000 nM
Brc1ccccc1OCC1=NCCN1	7.9	6.72	562				398	617	95.5	Intrinsic activity [2]: 0.88; EC50 [13]: 1260 nM; EC50 [15]: 97.7 nM
CC(Oc1ccccc1OC1CC1)C1=NCCN1 (stereo not drawn)	< 6	6.9	14.8	0.6	0.7					
C[C@@H](Oc1ccccc1C1CC1)C1=NCCN1		6.9			0.5	< 5				Activity (Mus musculus [11]): inactive; pEC50 [9]: inactive
c1ccc2oc(-c3ncc[nH]3)cc2c1										Activity (Mus musculus [18]): 20 mg/kg
CCCc1ccccc1OC(C)C1=NCCN1 (stereo not drawn)	< 6	7.05	13.8	0.6	0.75	7.08	148	537	50.1	EC50 [13]: 5010 nM; Emax [10]: 118%; EC50 [15]: 25.1 nM
C=CCc1ccccc1O[C@H](C)C1=NCCN1		7.4			0.5	< 5				pEC50 [9]: inactive
CNCCC(Oc1ccc(C(F)(F)F)cc1)c1ccccc1 (stereo not drawn)										Activity (Mus musculus [20]): Active
